27 molecules from US20050282818A1, “Ubiquitin ligase inhibitors” (Rigel Pharmaceuticals, Inc., priority 2004, published 2005) can be followed below.

Where only a bound is given, the exact number is not on record here.

In assay [1] the test system is ICAM-1 expression in A549 cells. Description: ICAM assay (IL-1 induced ICAM-1/CD54 expression in A549 cells). The format is cell-based, human. As to conditions: Homo sapiens, A549, ICAM assay. A digest of the protocol:
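A549 cells, 10,000/well, preincubated with compound 1 h at 37° C, then stimulated with IL-1 (4 μl of 25 ng/ml added) for 4 h. Surface ICAM-1 detected by anti-CD54 plus anti-mouse IgG staining for 1 h, luminescent read-out after PBS washes.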

In another assay the target is T1, TRAF6/Uev1A/Ubc13 (Homo sapiens, UniProt Q9Y4K3).
T1 sequence (Q9Y4K3 1-522): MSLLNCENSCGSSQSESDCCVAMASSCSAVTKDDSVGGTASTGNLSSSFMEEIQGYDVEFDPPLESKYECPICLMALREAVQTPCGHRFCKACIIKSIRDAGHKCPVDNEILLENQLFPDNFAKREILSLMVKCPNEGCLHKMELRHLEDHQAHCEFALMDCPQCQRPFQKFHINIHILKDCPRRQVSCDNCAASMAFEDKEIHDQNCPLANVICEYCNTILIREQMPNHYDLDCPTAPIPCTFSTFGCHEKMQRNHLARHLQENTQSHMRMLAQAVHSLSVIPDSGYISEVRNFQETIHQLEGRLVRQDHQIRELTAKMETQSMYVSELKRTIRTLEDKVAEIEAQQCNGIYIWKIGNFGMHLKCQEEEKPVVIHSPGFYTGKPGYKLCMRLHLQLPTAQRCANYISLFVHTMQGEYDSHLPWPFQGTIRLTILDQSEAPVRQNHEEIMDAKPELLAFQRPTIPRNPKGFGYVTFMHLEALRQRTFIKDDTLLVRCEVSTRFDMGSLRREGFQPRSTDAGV
Description: TRAF6/Uev1A/Ubc13 plate-based ubiquitin ligase assay. The assay is classed as biochemical. A digest of the protocol: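 Ligase activity was read as luminescence from anti-Flag/HRP detection of Flag-ubiquitin bound to casein-blocked Ni-plates alongside His-ubiquitin after a 1 h room-temperature reaction. Buffer: 62.5 mM Tris pH 7.5, 6.25 mM MgCl2, 1.0 mM DTT, 2 μM ATP; E1, Uev1a/Ubc13 and TRAF6 added last to start. IC50s derived across compound concentrations.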

A further assay deals with APC11/APC2 (Homo sapiens, UniProt Q9NYG5+Q9UJX6). Description: APC-11/APC-2 ligase assay (APC auto ubiquitination). The assay is classed as biochemical. As to conditions: APC assay. A digest of the protocol: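 His-tagged APC was captured on nickel plates with human E1 (5 ng/well), UbcH5c (20 ng/well), APC (100 ng/well) and Flag-ubiquitin (100 ng/well) in a Tris pH 7.6 reaction buffer containing 2.5 mM ATP, for 1 hour at room temperature. Read-out was anti-Flag/HRP chemiluminescence. IC50 was set against a DMSO control, typically from 6 or 8 concentrations.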
Chain of APC11/APC2 (Q9NYG5 whole entry): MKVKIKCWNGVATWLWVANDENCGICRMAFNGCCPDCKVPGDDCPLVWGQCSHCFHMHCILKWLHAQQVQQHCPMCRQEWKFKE
Chain of APC11/APC2 (Q9UJX6 whole entry): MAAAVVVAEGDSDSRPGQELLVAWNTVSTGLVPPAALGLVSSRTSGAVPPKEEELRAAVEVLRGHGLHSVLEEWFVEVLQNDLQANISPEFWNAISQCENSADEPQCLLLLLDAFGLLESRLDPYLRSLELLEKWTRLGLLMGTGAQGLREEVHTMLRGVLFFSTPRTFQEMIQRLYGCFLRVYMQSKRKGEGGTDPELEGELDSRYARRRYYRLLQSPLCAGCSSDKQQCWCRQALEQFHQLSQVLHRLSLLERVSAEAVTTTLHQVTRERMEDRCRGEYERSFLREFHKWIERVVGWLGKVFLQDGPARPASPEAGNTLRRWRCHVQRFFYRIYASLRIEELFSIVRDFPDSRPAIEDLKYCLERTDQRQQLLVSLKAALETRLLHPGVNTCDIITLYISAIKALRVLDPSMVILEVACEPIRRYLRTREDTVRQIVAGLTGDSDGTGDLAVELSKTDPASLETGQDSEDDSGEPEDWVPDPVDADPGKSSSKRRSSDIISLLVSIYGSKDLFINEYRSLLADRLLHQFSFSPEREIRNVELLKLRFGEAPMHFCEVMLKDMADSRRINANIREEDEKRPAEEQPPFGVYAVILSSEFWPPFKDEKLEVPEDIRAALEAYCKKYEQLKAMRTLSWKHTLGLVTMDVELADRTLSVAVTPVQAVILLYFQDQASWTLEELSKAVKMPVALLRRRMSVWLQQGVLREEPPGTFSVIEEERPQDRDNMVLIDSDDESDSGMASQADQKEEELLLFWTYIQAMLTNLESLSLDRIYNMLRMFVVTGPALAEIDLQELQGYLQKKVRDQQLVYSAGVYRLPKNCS

For orientation: IC50 means the concentration that inhibits the measured activity by half. On to `Nc1cccc2c(NS(=O)(=O)c3ccc(Cl)c4nonc34)cccc12` [compound 387, N-(5-aminonaphthalen-1-yl)-7-chloro-2,1,3-benzoxadiazole-4-sulfonamide], for which the half-maximal inhibitory concentration (IC50) was 1 to 20 µM in assay [1], at least 20 µM on TRAF6/Uev1A/Ubc13 and at least 20 µM against APC11/APC2.
Turning to `O=[N+]([O-])c1ccc(NS(=O)(=O)c2ccc(Cl)c3nonc23)c2ccccc12` [compound 388, 7-chloro-N-(4-nitronaphthalen-1-yl)-2,1,3-benzoxadiazole-4-sulfonamide], the IC50 (in assay [1]; at TRAF6/Uev1A/Ubc13; against APC11/APC2) was at least 20 µM each time.
For `Nc1cccc2c(NS(=O)(=O)c3ccc(N4CCOCC4)c4nonc34)cccc12` [compound 389], the 50% inhibitory concentration (IC50) (in assay [1]; against TRAF6/Uev1A/Ubc13; on APC11/APC2) was at least 20 µM throughout.
As for `Nc1cccc2c(NS(=O)(=O)c3ccc(Sc4cccc5cccnc45)c4nonc34)cccc12` [compound 390, N-(5-aminonaphthalen-1-yl)-7-(quinolin-8-ylthio)-2,1,3-benzoxadiazole-4-sulfonamide], the half-inhibitory concentration (IC50) is at least 20 µM in assay [1], 1 to 20 µM on TRAF6/Uev1A/Ubc13 and 1 to 20 µM against APC11/APC2.
Turning to `Nc1ccc(OS(=O)(=O)c2ccc(Cl)c3nonc23)c2ccccc12` [compound 391, 4-aminonaphthalen-1-yl 7-chloro-2,1,3-benzoxadiazole-4-sulfonate], the IC50 (in assay [1]; against TRAF6/Uev1A/Ubc13; at APC11/APC2) was 1 to 20 µM in each case.
As for `O=S(=O)(Nc1cccc2ccccc12)c1ccc(Cl)c2nonc12` [compound 392, 7-chloro-N-(naphthalen-1-yl)-2,1,3-benzoxadiazole-4-sulfonamide], the IC50 in assay [1] is 1 to 20 µM; against TRAF6/Uev1A/Ubc13 it was at least 20 µM; at APC11/APC2 it was at least 20 µM.
As for `O=S(=O)(Nc1ccc(O)c2ccccc12)c1ccc(Cl)c2nonc12` [compound 393, 7-chloro-N-(4-hydroxynaphthalen-1-yl)-2,1,3-benzoxadiazole-4-sulfonamide], the IC50 (in assay [1]; on TRAF6/Uev1A/Ubc13; against APC11/APC2) was 1 to 20 µM in each case.
Take `O=S(=O)(Nc1ccc(OS(=O)(=O)c2ccc(Cl)c3nonc23)c2ccccc12)c1ccc(Cl)c2nonc12` [compound 394, 4-(7-chloro-2,1,3-benzoxadiazole-4-sulfonamido)naphthalen-1-yl 7-chloro-2,1,3-benzoxadiazole-4-sulfonate]: the IC50 (in assay [1]; on TRAF6/Uev1A/Ubc13; on APC11/APC2) was 1 to 20 µM in each case.
As for `Nc1ccc(Nc2cccc(F)c2F)c2nonc12` [compound 396, 7-{(2,3-difluorophenyl)amino}-2,1,3-benzoxadiazol-4-amine], the half-inhibitory concentration (IC50) (in assay [1]; against TRAF6/Uev1A/Ubc13; against APC11/APC2) was at least 20 µM in each case.
Regarding `O=[N+]([O-])c1ccc(Nc2cccc(F)c2F)c2nonc12` [compound 397, N-(2,3-difluorophenyl)-7-nitro-2,1,3-benzoxadiazol-4-amine], the half-inhibitory concentration (IC50) (in assay [1]; on TRAF6/Uev1A/Ubc13; against APC11/APC2) was at least 20 µM each time.
Regarding `Nc1ccc(Nc2ccc3[nH]ncc3c2)c2nonc12` [compound 398, N-(1H-indazol-5-yl)-2,1,3-benzoxadiazole-4,7-diamine], the half-maximal inhibitory concentration (IC50) is 1 to 20 µM in assay [1], at least 20 µM against TRAF6/Uev1A/Ubc13 and at least 20 µM against APC11/APC2.
Take `O=C(O)c1ccc(NS(=O)(=O)c2ccc(Cl)c3nonc23)cc1` [compound 399, 4-(7-chloro-2,1,3-benzoxadiazole-4-sulfonamido)benzoic acid]: the concentration for half-maximal inhibition (IC50) (in assay [1]; against TRAF6/Uev1A/Ubc13; against APC11/APC2) was at least 20 µM in each case.
In the case of `O=[N+]([O-])c1ccc(Nc2ccccc2F)c2nonc12` [compound 401, N-(2-fluorophenyl)-7-nitro-2,1,3-benzoxadiazol-4-amine], the half-inhibitory concentration (IC50) (in assay [1]; on TRAF6/Uev1A/Ubc13; against APC11/APC2) was at least 20 µM in each case.
On to `O=S(=O)(Nc1cccc(F)c1F)c1ccc(Sc2ccc(O)cc2)c2nonc12` [compound 402, N-(2,3-difluorophenyl)-7-([4-hydroxyphenyl]thio)-2,1,3-benzoxadiazole-4-sulfonamide], for which the figures for the IC50 (in assay [1]; against TRAF6/Uev1A/Ubc13; on APC11/APC2) were at least 20 µM, at least 20 µM and 1 to 20 µM, respectively.
As for `COc1ccccc1C(=O)Nc1ccc(Nc2cccc(F)c2F)c2nonc12` [compound 403, N-(7-[{2,3-difluorophenyl}amino]-2,1,3-benzoxadiazol-4-yl)-2-methoxybenzamide], the IC50 (in assay [1]; at TRAF6/Uev1A/Ubc13; against APC11/APC2) was at least 20 µM throughout.
As for `COc1ccccc1Nc1ccc(S(=O)(=O)Nc2ccccc2F)c2nonc12` [compound 404, N-(2-fluorophenyl)-7-([2-methoxyphenyl]amino)-2,1,3-benzoxadiazole-4-sulfonamide], the IC50 (in assay [1]; against TRAF6/Uev1A/Ubc13; against APC11/APC2) was at least 20 µM in each case.
With `Fc1cc2nonc2c(N2CCOCC2)c1F` [compound 405, 5,6-difluoro-4-(morpholin-4-yl)-2,1,3-benzoxadiazole], the IC50 (in assay [1]; against TRAF6/Uev1A/Ubc13; against APC11/APC2) was at least 20 µM in each case.
In the case of `Fc1c(N2CCOCC2)cc2nonc2c1F` [compound 406, 4,5-difluoro-6-(morpholin-4-yl)-2,1,3-benzoxadiazole], the IC50 (in assay [1]; against TRAF6/Uev1A/Ubc13; at APC11/APC2) was at least 20 µM throughout.
Turning to `O=S(=O)(Nc1cccc2ccccc12)c1ccc(Sc2cccc3cccnc23)c2nonc12` [compound 407, N-(naphthalen-1-yl)-7-(quinolin-8-ylthio)-2,1,3-benzoxadiazole-4-sulfonamide], the IC50 (in assay [1]; against TRAF6/Uev1A/Ubc13; against APC11/APC2) was 1 to 20 µM each time.
With `COc1cccc(Nc2ccc3nonc3c2S(=O)(=O)Nc2cccc(OC)c2OC)c1OC` [compound 408, N-(2,3-dimethoxyphenyl)-5-([2,3-dimethoxyphenyl]amino)-2,1,3-benzoxadiazole-4-sulfonamide], the IC50 in assay [1] is 1 to 20 µM; against TRAF6/Uev1A/Ubc13 it was at least 20 µM; against APC11/APC2, at least 20 µM.
As for `COc1cccc(NS(=O)(=O)c2c(Cl)ccc3nonc23)c1OC` [compound 409, 5-chloro-N-(2,3-dimethoxyphenyl)-2,1,3-benzoxadiazole-4-sulfonamide], the half-maximal inhibitory concentration (IC50) in assay [1] is 1 to 20 µM; on TRAF6/Uev1A/Ubc13, at least 20 µM; against APC11/APC2, at least 20 µM.
Consider `COc1cccc(NS(=O)(=O)c2ccc(Cl)c3nonc23)c1OC` [compound 410, 7-chloro-N-(2,3-dimethoxyphenyl)-2,1,3-benzoxadiazole-4-sulfonamide], for which the IC50 is 1 to 20 µM in assay [1], at least 20 µM on TRAF6/Uev1A/Ubc13 and at least 20 µM against APC11/APC2.
Turning to `O=S(=O)(c1c(Cl)cc(Cl)c2nonc12)N1CCOCC1` [compound 411, 5,7-dichloro-4-{(morpholin-4-yl)sulfonyl}-2,1,3-benzoxadiazole], the concentration for half-maximal inhibition (IC50) is 1 to 20 µM in assay [1], 1 to 20 µM against TRAF6/Uev1A/Ubc13 and at least 20 µM against APC11/APC2.
Regarding `O=S(=O)(c1c(N2CCOCC2)cc(Cl)c2nonc12)N1CCOCC1` [compound 412, 7-chloro-5-(morpholin-4-yl)-4-{(morpholin-4-yl)sulfonyl}-2,1,3-benzoxadiazole], the results for the IC50 (in assay [1]; against TRAF6/Uev1A/Ubc13; against APC11/APC2) were 1 to 20 µM, at least 20 µM and at least 20 µM, respectively.
On to `COc1cccc(NS(=O)(=O)c2ccc(Sc3cccc4ccccc34)c3nonc23)c1OC` [compound 413, N-(2,3-dimethoxyphenyl)-7-(naphthalen-1-ylthio)-2,1,3-benzoxadiazole-4-sulfonamide], for which the IC50 (in assay [1]; at TRAF6/Uev1A/Ubc13; against APC11/APC2) was 1 to 20 µM in each case.
On to `O=S(=O)(Nc1c(F)cccc1F)c1c(Cl)cc(Cl)c2nonc12` [compound 414, 5,7-dichloro-N-(2,6-difluorophenyl)-2,1,3-benzoxadiazole-4-sulfonamide], for which the IC50 (in assay [1]; against TRAF6/Uev1A/Ubc13; against APC11/APC2) was 1 to 20 µM each time.
With `O=S(=O)(Nc1cccc2ccccc12)c1c(Nc2cccc3ccccc23)cc(Cl)c2nonc12` [compound 415, 7-chloro-N-(naphthalen-1-yl)-5-(naphthalen-1-ylamino)-2,1,3-benzoxadiazole-4-sulfonamide], the IC50 (in assay [1]; against TRAF6/Uev1A/Ubc13; on APC11/APC2) was 1 to 20 µM throughout.
